Laboratory results taken from ChEMBL document CHEMBL1201862, “PubChem BioAssay data set” (2004).
Active and inactive are the calls of the source.

How the values were obtained:
[1] = target: Bcl-2-like protein 10 (Homo sapiens, UniProt Q9HD36); assay: displacers of TR3 peptide from Bcl-B, primary screen, selectivity assay for Bfl-1 inhibitor project, biochemical, fluorescence polarization, FITC-TR3 peptide (AID 748);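 note: fluorescence polarization from a fluorescein-labelled TR3 peptide binding purified Bcl-B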
[2] = target: Estrogen receptor beta (Homo sapiens, UniProt Q92731); assay: ERβ–SRC-3 coactivator interaction inhibitors, confirmation, orthogonal assay, biochemical, ELISA, streptavidin-HRP readout (AID 1060)
[3] = target: Induced myeloid leukemia cell differentiation protein Mcl-1 (Homo sapiens, UniProt Q07820); format: functional
[4] = target: T1, Tyrosine-protein phosphatase non-receptor type 7 (Homo sapiens, UniProt P35236); assay: redox-dependent HePTP inhibition, mechanism study, biochemical, fluorescence (AID 2068); format: functional
T1 sequence (P35236 whole entry): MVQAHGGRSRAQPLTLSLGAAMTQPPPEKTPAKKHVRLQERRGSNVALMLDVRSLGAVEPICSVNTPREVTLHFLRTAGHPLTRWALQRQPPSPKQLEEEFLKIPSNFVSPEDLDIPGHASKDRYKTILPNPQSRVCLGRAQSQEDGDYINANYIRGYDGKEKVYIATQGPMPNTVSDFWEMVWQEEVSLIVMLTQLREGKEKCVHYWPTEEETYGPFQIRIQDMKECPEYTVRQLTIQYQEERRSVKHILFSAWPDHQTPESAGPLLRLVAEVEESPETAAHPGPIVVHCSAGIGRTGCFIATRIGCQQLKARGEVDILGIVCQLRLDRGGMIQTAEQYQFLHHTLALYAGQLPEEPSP

[5] = target: T2, Estrogen receptor (Homo sapiens, UniProt P03372); assay: ERα–SRC-3 coactivator interaction inhibitors, confirmation, orthogonal assay, biochemical, ELISA, streptavidin-HRP readout (AID 1079)
T2 sequence (P03372 whole entry): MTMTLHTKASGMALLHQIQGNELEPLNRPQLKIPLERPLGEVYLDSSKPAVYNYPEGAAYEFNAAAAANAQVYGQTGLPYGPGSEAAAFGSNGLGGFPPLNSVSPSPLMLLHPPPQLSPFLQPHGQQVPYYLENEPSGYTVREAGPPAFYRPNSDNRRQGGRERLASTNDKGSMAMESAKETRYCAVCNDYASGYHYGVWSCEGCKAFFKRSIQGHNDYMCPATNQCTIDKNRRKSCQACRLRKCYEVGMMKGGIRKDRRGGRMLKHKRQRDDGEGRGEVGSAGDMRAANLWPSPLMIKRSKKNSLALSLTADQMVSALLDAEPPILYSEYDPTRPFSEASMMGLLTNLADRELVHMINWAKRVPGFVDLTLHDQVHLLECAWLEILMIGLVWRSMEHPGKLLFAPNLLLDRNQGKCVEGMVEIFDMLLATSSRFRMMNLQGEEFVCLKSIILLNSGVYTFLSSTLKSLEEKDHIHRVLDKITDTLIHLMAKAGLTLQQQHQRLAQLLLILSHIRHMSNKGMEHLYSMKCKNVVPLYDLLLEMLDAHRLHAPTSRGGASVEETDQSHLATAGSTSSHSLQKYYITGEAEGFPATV

[6] = test system: HEK293; assay: Fluorescence-based counterscreen for potentiators or agonists of NPY-Y2: cell-based high-throughput dose response assay to identify inhibitors of cyclic nucleotide gated ion channel (CNGC) activity. In this assay, the parental HEK293 cell line transfected with a cyclic-nucleotide gated ion channel (CNGC)-based cAMP sensor is used to measure inhibition of isoproterenol-induced CNGC activity by test compound.; format: functional; conditions: Homo sapiens
[7] = target: T3, Neuropeptide Y receptor type 2 (Homo sapiens, UniProt P49146); assay: Fluorescence-based cell-based high-throughput dose response assay for agonists of NPY-Y2. [Related pubchem assays: 1703 (Screening assay (CNGC inhibitors).), 1359 (Screening assay (NPY-Y2 potentiators or agonists).), 1304 (Screening assay (NPY-Y1 potentiators or agonists).), 1710 (Screening assay (NPY-Y2 agonists).), 1791 (Summary AID.)]; format: functional
T3 sequence (P49146 whole entry): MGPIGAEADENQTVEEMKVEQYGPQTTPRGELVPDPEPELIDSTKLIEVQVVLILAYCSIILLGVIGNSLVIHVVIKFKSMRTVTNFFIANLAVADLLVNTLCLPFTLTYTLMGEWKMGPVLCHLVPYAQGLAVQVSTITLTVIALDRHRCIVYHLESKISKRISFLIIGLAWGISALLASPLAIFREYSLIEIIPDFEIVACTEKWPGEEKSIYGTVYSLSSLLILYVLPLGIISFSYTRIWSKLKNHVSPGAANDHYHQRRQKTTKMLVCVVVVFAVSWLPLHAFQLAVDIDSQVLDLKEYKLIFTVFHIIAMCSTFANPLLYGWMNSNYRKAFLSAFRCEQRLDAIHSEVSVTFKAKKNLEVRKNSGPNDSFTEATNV

[8] = target: T4, Neuropeptide Y receptor type 1 (Homo sapiens, UniProt P25929); assay: Fluorescence-based counterscreen for agonists of NPY-Y2: cell-based high-throughput dose response assay for agonists of NPY-Y1.; format: functional
T4 sequence (P25929 whole entry): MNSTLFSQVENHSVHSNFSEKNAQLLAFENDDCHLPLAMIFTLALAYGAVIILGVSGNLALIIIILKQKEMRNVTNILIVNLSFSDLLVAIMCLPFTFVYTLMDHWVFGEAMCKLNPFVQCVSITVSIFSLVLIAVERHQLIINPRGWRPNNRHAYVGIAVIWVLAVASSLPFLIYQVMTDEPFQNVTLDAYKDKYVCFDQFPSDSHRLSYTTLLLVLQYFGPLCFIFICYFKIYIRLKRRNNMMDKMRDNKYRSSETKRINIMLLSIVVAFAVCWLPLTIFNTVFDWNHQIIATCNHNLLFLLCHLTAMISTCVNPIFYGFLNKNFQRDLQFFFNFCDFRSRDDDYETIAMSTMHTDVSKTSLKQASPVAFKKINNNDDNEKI

[9] = target: T5, Neuropeptides B/W receptor type 1 (Homo sapiens, UniProt P48145); assay: Fluorescence-based dose response cell-based high throughput screening assay to identify antagonists of the G-protein coupled receptor 7 (GPR7). [Related pubchem assays: 1952 (Screening assay (GPR7 antagonists).), 1880 (Summary AID.)]; format: functional
T5 sequence (P48145 whole entry): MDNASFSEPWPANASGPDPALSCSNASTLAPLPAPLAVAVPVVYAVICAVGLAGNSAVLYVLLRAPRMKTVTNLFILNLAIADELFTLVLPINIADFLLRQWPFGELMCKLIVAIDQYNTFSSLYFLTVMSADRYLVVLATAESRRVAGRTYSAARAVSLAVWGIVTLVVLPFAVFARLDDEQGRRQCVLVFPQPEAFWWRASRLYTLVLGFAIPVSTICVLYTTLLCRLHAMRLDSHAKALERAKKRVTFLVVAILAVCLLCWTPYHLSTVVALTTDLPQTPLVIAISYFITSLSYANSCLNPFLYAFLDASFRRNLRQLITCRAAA

[10] = target: T6, Melanin-concentrating hormone receptor 1 (Homo sapiens, UniProt Q99705); assay: Fluorescence-based counterscreen for antagonists of the G-protein coupled receptor 7 (GPR7): cell-based high throughput dose response assay to identify antagonists of the melanin-concentrating hormone receptor 1 (MCHR1).; format: functional
[11] = target: T6, Melanin-concentrating hormone receptor 1; assay: Late-stage fluorescence-based counterscreen for antagonists of the G-protein coupled receptor 7 (GPR7): cell-based dose response assay to identify antagonists of the melanin-concentrating hormone receptor 1 (MCHR1). [Related pubchem assays (depositor defined):AID1861, AID1880, AID1952, AID2148, AID2251, AID2257, AID485339]; format: functional
[12] = test system: Streptococcus; assay: Luminescence Microorganism-Based Dose Response Follow up to Identify Compounds Cytotoxic to Streptococcus. [Related pubchem assays: 1677 (Project Summary), 1915, 1914, 1902 (Retest at Dose), 1900 (Counter Screen), 1662 (Primary HTS)]; format: functional, organism-based
[13] = target: T3, Neuropeptide Y receptor type 2; assay: Fluorescence-based counterscreen for agonists of NPY-Y1: cell-based high-throughput dose response assay for agonists of NPY-Y2.; format: functional
[14] = test system: HEK293; assay: Fluorescence-based counterscreen for potentiators or agonists of NPY-Y1: cell-based high-throughput dose response assay for inhibitors of cyclic nucleotide gated ion channel (CNGC) activity. In this assay, the parental HEK293 cell line transfected with a cyclic-nucleotide gated ion channel (CNGC)-based cAMP sensor is used to measure inhibition of isoproterenol-induced CNGC …; format: functional; conditions: Homo sapiens
[15] = target: T4, Neuropeptide Y receptor type 1; assay: Fluorescence-based dose response cell-based high-throughput screening assay for agonists of NPY-Y1. [Related pubchem assays: 1697 (Screening assay (NPY-Y1 agonists).), 1359 (Screening assay (NPY-Y2 potentiators or agonists).), 1304 (Screening assay (NPY-Y1 potentiators or agonists).), 1704 (Screening assay (CNGC inhibitors).), 1791 (Summary AID.)]; format: functional

T6 sequence (Q99705 whole entry): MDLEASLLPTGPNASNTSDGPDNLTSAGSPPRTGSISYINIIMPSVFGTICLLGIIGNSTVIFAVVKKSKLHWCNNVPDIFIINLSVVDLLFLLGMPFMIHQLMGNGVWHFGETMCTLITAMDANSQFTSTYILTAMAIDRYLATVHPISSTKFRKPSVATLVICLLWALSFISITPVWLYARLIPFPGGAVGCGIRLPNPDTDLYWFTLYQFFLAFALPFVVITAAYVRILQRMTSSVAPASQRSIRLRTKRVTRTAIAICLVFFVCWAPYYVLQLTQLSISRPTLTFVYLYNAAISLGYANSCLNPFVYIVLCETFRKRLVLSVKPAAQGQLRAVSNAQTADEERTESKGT
Estrogen receptor beta, sequence (Q92731 whole entry): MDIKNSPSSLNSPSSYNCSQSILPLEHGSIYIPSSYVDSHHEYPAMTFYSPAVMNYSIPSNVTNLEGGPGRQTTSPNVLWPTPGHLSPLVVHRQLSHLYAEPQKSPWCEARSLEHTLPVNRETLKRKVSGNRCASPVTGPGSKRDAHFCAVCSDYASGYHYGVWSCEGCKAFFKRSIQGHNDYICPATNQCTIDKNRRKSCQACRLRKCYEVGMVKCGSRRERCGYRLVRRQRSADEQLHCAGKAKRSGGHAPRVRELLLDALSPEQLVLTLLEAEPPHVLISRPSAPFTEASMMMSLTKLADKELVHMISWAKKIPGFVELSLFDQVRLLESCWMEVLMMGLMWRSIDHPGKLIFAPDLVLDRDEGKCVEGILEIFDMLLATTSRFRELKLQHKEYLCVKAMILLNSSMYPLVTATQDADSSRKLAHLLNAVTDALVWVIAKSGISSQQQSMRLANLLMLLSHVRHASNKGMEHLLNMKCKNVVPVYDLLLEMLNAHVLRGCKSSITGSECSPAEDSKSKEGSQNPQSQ
Induced myeloid leukemia cell differentiation protein Mcl-1, sequence (Q07820 whole entry): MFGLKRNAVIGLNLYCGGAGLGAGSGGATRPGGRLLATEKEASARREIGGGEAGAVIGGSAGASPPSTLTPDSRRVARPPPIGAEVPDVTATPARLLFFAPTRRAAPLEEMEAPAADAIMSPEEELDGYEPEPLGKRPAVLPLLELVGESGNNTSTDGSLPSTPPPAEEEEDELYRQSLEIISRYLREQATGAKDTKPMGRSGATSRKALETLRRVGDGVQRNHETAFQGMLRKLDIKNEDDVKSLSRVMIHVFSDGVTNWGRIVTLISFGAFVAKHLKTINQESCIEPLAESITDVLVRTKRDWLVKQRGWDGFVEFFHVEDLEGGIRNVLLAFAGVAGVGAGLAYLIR
Bcl-2-like protein 10, sequence (Q9HD36 whole entry): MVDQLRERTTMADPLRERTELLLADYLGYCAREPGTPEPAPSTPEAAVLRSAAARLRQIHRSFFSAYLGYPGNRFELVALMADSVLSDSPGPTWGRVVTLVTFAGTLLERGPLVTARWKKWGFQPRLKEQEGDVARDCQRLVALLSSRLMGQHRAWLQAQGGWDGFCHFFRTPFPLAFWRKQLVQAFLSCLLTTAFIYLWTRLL

## O=C(NCc1ccccn1)c1ccc2nc(-c3ccco3)c(-c3ccco3)nc2c1
[1]
  IC50: 9.92 µM (active)
[2]
  IC50: 4.9 µM (not active)
[3]
  IC50: 2.28 µM (active)
[4]
  IC50: 3.99 µM (active)

## O=C(CCCCCn1c(=S)[nH]c2ccccc2c1=O)N1CCN(c2cccc([N+](=O)[O-])c2)CC1
[5]
  IC50: 0.84 µM (not active)

## COc1ccc(-n2nnnc2SCC(=O)NCCc2ccccc2)cc1OC
[6]
  EC50: > 35.4 µM (not active)
[7]
  EC50: > 35.4 µM (not active)
[8]
  EC50: > 35.4 µM (not active)

## COc1ccc(Oc2c(Cl)cnn(-c3ccc(C)cc3)c2=O)cc1
[9]
  IC50: 2.94 µM (active)
[10]
  IC50: 23.6 µM (not active)
[11]
  IC50: 17 µM (inactive)

## CN1C(=O)/C(=C\c2cccn2-c2ccc3ccccc3c2)C(=O)NC1=S
[12]
  EC50: > 260 µM (not active)

## CC1CC(C)CN(CCCNC(=O)c2cc3c(O)nc4ccccc4c3n2C)C1 (stereo not given)
[13]
  EC50: > 35.4 µM (not active)
[14]
  IC50: 19.8 µM (not active)
[15]
  EC50: > 35.4 µM (not active)
